Reference: patent US8604217B2, “Compound, a process for its preparation, a pharmaceutical composition, use of a compound, a method for modulating or regulating serine/threonine kinases and a serine/threonine kinases modulating agent” (Selvita S.A., priority 2009, dated 2013)

Experiments:
[1] = target: PIM-1 (Homo sapiens (Human), UniProt P11309); test: Luminometric kinase assay for PIM1 kinase (Kinase-Glo); format: biochemical; conditions: 1 μM ATP, 25 min at RT
Method: Kinase assay was performed using luminescent Kinase-Glo® (Promega) system. The Kinase-Glo® Luminescent Kinase Assay Platform provides a homogeneous, high-throughput screening method for measuring kinase activity by quantifying the amount of ATP remaining in solution following a kinase reaction. The luminescent signal is correlated with the amount of ATP present and is inversely correlated with the kinase activity. Appropriate amounts of both kinase and substrate were mixed in 96-well, white wall plate in the reaction buffer (8 mM MOPS/NaOH, pH7.0, 0.2 mM EDTA, 2 mM MgCl2). Tested compounds were diluted in DMSO and serial dilutions starting with 1 μM were added to the palates. Reaction was initiated by adding 1 μM of ATP solution and conducted for 25 min. at RT. Luminescent signal was detected by adding Kinase-Glo® reagent and measured using a microplate spectrophotometer (Synergy 2 multi-mode microplate reader (BioTek)). IC50 values were obtained by fitting sigmoidal dose-response curve (variable slope) using GraphPad Prism software.

[2] = test system: human myelomonocytic, biphenotypic leukemia MV4-11 cells; test: Growth inhibition test (MTS) on MV4-11 cells; format: cell-based; conditions: Homo sapiens, MV4-11, 72 hours, read-out: MV-4-11 ED50
Method: (§1) Ten thousand cells of human myelomonocytic, biphenotypic leukemia MV4-11 were inoculated into each well of a 96-well microplate (manufactured by Corning Corp.) using Iscove's MDM medium (culture medium) containing 10% fetal calf serum (FCS). Next day, a dimethyl sulfoxide (DMSO) solution of each test compound prepared in a concentration of 10 mmol/L was further diluted with culture medium to the desired concentrations (0.1, 0.5, 1, 2.5, 5 and 10 micromol/L), and the diluted solution was added to each well. The individual wells were further cultured in 5% carbon dioxide at 37° C. for 72 hours. After completion of the culture, 10 μl MTS (3-(4,5-Dimethyl-2-thiazolyl)-5-(carboxymethoxyphenyl)-2-(4-sulfophenyl)-2H-tetrazolium, inner salt assay (CellTiter96® AQueous One Solution Cell Proliferation Assay, Promega) was added to each well, and culturing was performed in 5% carbon dioxide at 37° C. for 2 hours. Using a microplate spectrophotometer (Synergy 2 multi-mode microplate reader (BioTek)), the absorbance of each well was measured at 490 nm. The value for cells not incorporated with a test compound was designated as 100%. By comparing these values with the absorbance difference obtained at the well in which each test compound was added, the cell viability (% viability) after treatment with the test compound was calculated.

[3] = test system: human hepatoma HepG2 cells; test: Growth inhibition test (MTS) on HepG2 cells; format: cell-based; conditions: 72 hours, read-out: HepG2 ED50
Method: as §1, with “Two” for “Ten”, “hepatoma HepG2” for “myelomonocytic, biphenotypic leukemia MV4-11”, “DMEM” for “Iscove's MDM”

[4] = test system: human breast adenocarcinoma MCF7 cells; test: Growth inhibition test (MTS) on MCF7 cells; format: cell-based; conditions: Homo sapiens, MCF7, 72 hours, read-out: MCF-7 ED50
Method: as §1, with “Two” for “Ten”, “breast adenocarcinoma MCF7” for “myelomonocytic, biphenotypic leukemia MV4-11”, “Corp.), and” for “Corp.)”, “DMEM” for “Iscove's MDM”

[5] = test system: human prostate adenocarcinoma PC3 cells; test: Growth inhibition test (MTS) on PC3 cells; format: cell-based; conditions: Homo sapiens, PC-3, 72 hours, read-out: PC-3 ED50
From the text: as §1, with “Two” for “Ten”, “prostate adenocarcinoma PC3” for “myelomonocytic, biphenotypic leukemia MV4-11”, “Corp.), and” for “Corp.)”, “F12K (Ham's F12:[…] 1:1)” for “Iscove's MDM”

Sequence of PIM-1 (P11309 whole entry): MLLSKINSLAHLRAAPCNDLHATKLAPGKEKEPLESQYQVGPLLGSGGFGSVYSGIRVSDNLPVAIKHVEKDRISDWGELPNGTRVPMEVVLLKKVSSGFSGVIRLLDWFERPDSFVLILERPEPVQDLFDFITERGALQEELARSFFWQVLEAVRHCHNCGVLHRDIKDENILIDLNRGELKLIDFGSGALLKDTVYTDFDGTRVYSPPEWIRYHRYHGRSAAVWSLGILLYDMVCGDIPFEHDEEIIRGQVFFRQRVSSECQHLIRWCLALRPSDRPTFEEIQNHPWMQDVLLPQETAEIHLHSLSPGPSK

Structure (SMILES): Brc1c(Br)c(Br)c2[nH]c(NCc3ccccc3)nc2c1Br [Compound 82, N-benzyl-4,5,6,7-tetrabromo-1H-benzo[d]imidazol-2-amine]
- IC50 [1]: 200 nM

Structure (SMILES): Brc1c(Br)c(Br)c2[nH]c(NCCc3ccccn3)nc2c1Br [Compound 128, 4,5,6,7-tetrabromo-N-(2-(pyridin-2-yl)ethyl)-1H-benzo[d]imidazol-2-amine]
- IC50 [2]: 3830 nM
- IC50 [1]: 71.3 nM

Structure (SMILES): Brc1c(Br)c(Br)c2[nH]c(N3CCN4CCC3CC4)nc2c1Br [Compound 350, 2-(4,5,6,7-tetrabromo-1H-benzo[d]imidazol-2-yl)-2,5-diaza-bicyclo[3.2.2]nonane]
- IC50 [3]: 5550 nM
- IC50 [2]: 5520 nM
- IC50 [4]: 6550 nM
- IC50 [5]: 8480 nM
- IC50 [1]: 32.7 nM

Structure (SMILES): Cc1c(Nc2nc3c(Br)c(Br)c(Br)c(Br)c3[nH]2)cccc1-c1nncn1C [Compound 248, 4,5,6,7-tetrabromo-N-(2-methyl-3-(4-methyl-4H-1,2,4-triazol-3-yl)phenyl)-1H-benzo[d]imidazol-2-amine]
- IC50 [1]: 48.9 nM

Structure (SMILES): NCCCCNc1nc2c(Br)c(Br)c(Br)c(Br)c2[nH]1 [Compound 61, N-(4-aminobutyl)-4,5,6,7-tetrabromo-1H-benzo[d]imidazol-2-amine]
- IC50 [3]: 7350 nM
- IC50 [5]: 8330 nM
- IC50 [1]: 8.85 nM

Structure (SMILES): Cc1nccn1CC1CCCN(c2nc3c(Br)c(Br)c(Br)c(Br)c3[nH]2)C1 (stereo not shown) [Compound 262, 4,5,6,7-tetrabromo-2-(3-((2-methyl-1H-imidazol-1-yl)methyl)piperidin-1-yl)-1H-benzo[d]imidazole]
- IC50 [1]: 61.4 nM

Structure (SMILES): NCC(O)CNc1nc2c(Br)c(Br)c(Br)c(Br)c2[nH]1 (stereo not shown) [Compound 90, 1-(4,5,6,7-tetrabromo-1H-benzo[d]imidazol-2-ylamino)-3-aminopropan-2-ol]
- IC50 [3]: 3980 nM
- IC50 [5]: 6520 nM
- IC50 [1]: 13.1 nM

Structure (SMILES): Brc1c(Br)c(Br)c2[nH]c(Nc3ccccc3)nc2c1Br [Compound 79, 4,5,6,7-tetrabromo-N-phenyl-1H-benzo[d]imidazol-2-amine]
- IC50 [3]: 6520 nM
- IC50 [1]: 68.2 nM

Structure (SMILES): N[C@@H]1CC=CC[C@H]1Nc1nc2c(Br)c(Br)c(Br)c(Br)c2[nH]1 (relative stereo) [Compound 331, Trans N1-(4,5,6,7-tetrabromo-1H-benzo[d]imidazol-2-yl)cyclohex-4-ene-1,2-diamine]
- IC50 [2]: 1360 nM
- IC50 [1]: 14.8 nM

Structure (SMILES): CN(c1ccccc1)c1nc2c(Br)c(Br)c(Br)c(Br)c2[nH]1 [Compound 342, 4,5,6,7-tetrabromo-N-methyl-N-phenyl-1H-benzo[d]imidazol-2-amine]
- IC50 [1]: 28.6 nM

Structure (SMILES): Brc1c(Br)c(Br)c2[nH]c(NCCCN3CCCCC3)nc2c1Br [Compound 59, 4,5,6,7-tetrabromo-N-(3-(piperidin-1-yl)propyl)-1H-benzo[d]imidazol-2-amine]
- IC50 [3]: 3600 nM
- IC50 [1]: 50.8 nM

Structure (SMILES): Brc1c(Br)c(Br)c2[nH]c(N3CCNc4ccccc43)nc2c1Br [Compound 367, 1-(4,5,6,7-tetrabromo-1H-benzo[d]imidazol-2-yl)-1,2′,3,4-tetrahydroquinoxaline]
- IC50 [2]: 3770 nM
- IC50 [1]: 39.5 nM

Structure (SMILES): CN(C)CCN(Cc1ccccc1)c1nc2c(Br)c(Br)c(Br)c(Br)c2n1Cc1ccccc1 [Compound 95, N,1-dibenzyl-4,5,6,7-tetrabromo-N-(2-(dimethylamino)ethyl)-1H-benzo[d]imidazol-2-amine]
- IC50 [2]: 7610 nM
- IC50 [1]: 75.7 nM

Structure (SMILES): OC1CCCCC1Nc1nc2c(Br)c(Br)c(Br)c(Br)c2[nH]1 (stereo not shown) [Compound 334, 2-(4,5,6,7-tetrabromo-1H-benzo[d]imidazol-2-ylamino)cyclohexanol]
- IC50 [2]: 5340 nM
- IC50 [1]: 14.1 nM

Structure (SMILES): Oc1ncc(Nc2nc3c(Br)c(Br)c(Br)c(Br)c3[nH]2)c(O)n1 [Compound 303, 5-(4,5,6,7-tetrabromo-1H-benzo[d]imidazol-2-ylamino)pyrimidine-2,4-diol]
- IC50 [1]: 128 nM

Structure (SMILES): Brc1c(Br)c(Br)c2[nH]c(N3CCCC(CN4CCN(c5ccccn5)CC4)C3)nc2c1Br (stereo not shown) [Compound 266, 4,5,6,7-tetrabromo-2-(3-((4-(pyridin-2-yl)piperazin-1-yl)methyl)piperidin-1-yl)-1H-benzo[d]imidazole]
- IC50 [3]: 2480 nM
- IC50 [2]: 2550 nM
- IC50 [1]: 294 nM

Structure (SMILES): Brc1c(Br)c(Br)c2[nH]c(N3CCCC3)nc2c1Br [Compound 18, 4,5,6,7-tetrabromo-2-(pyrrolidin-1-yl)-1H-benzo[d]imidazole]
- IC50 [2]: 7680 nM
- IC50 [1]: 13.3 nM

Structure (SMILES): Brc1c(Br)c(Br)c2[nH]c(NCC3CCNCC3)nc2c1Br [Compound 67, 4,5,6,7-tetrabromo-N-((piperidin-4-yl)methyl)-1H-benzo[d]imidazol-2-amine]
- IC50 [1]: 65.2 nM

Structure (SMILES): CN(C)CCN1CCN(c2nc3c(Br)c(Br)c(Br)c(Br)c3[nH]2)CC1 [Compound 343, 2-(4-(4,5,6,7-tetrabromo-1H-benzo[d]imidazol-2-yl)piperazin-1-yl)-N,N-dimethylethanamine]
- IC50 [1]: 36.8 nM

Structure (SMILES): Brc1c(Br)c(Br)c2[nH]c(Nc3ccncc3)nc2c1Br [Compound 28, 4,5,6,7-tetrabromo-N-(pyridin-4-yl)-1H-benzo[d]imidazol-2-amine]
- IC50 [1]: 37 nM

Structure (SMILES): CN(Cc1ccccc1)c1nc2c(Br)c(Br)c(Br)c(Br)c2[nH]1 [Compound 117, N-benzyl-4,5,6,7-tetrabromo-N-methyl-1H-benzo[d]imidazol-2-amine]
- IC50 [2]: 9400 nM
- IC50 [1]: 85.6 nM

Structure (SMILES): Nc1ccc(Nc2nc3c(Br)c(Br)c(Br)c(Br)c3[nH]2)cc1 [Compound 86, N1-(4,5,6,7-tetrabromo-1H-benzo[d]imidazol-2-yl)benzene-1,4-diamine]
- IC50 [1]: 66 nM

Structure (SMILES): CN(C)CCCN(Cc1ccccc1)c1nc2c(Br)c(Br)c(Br)c(Br)c2[nH]1 [Compound 85, N-benzyl-4,5,6,7-tetrabromo-N-(3-(dimethylamino)propyl)-1H-benzo[d]imidazol-2-amine]
- IC50 [3]: 2840 nM
- IC50 [2]: 2660 nM
- IC50 [4]: 4120 nM
- IC50 [5]: 5840 nM
- IC50 [1]: 65.3 nM
